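These data come from cells grown in 96-well plates and exposed to compound for 48 hours at five concentrations. GI50 is the concentration that inhibits growth by half.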 Activity calls are given as the source filed them. No stated cut-off is given here; in the data, active = GI50 up to about 1.1 µM and inactive = higher.
Experiments:
Experiment in all cases: NCI-60 cell line screen, 48 h
[1] = test system: 786-0
[2] = test system: A498
[3] = test system: A549
[4] = test system: ACHN
[5] = test system: BT-549
[6] = test system: CAKI-1
[7] = test system: CCRF-CEM
[8] = test system: COLO 205
[9] = test system: DU-145
[10] = test system: EKVX
[11] = test system: HCC 2998
[12] = test system: HCT-116
[13] = test system: HCT-15
[14] = test system: HL-60
[15] = test system: HOP-62
[16] = test system: HOP-92
[17] = test system: HT-29
[18] = test system: Hs-578T
[19] = test system: IGROV-1
[20] = test system: K562
[21] = test system: KM12
[22] = test system: LOX IMVI
[23] = test system: M14
[24] = test system: MCF7
[25] = test system: MDA-MB-231
[26] = test system: MDA-MB-435
[27] = test system: MDA-N
[28] = test system: MOLT-4
[29] = test system: Malme-3M
[30] = test system: NCI-H226
[31] = test system: NCI-H23
[32] = test system: NCI-H460
[33] = test system: NCI-H522
[34] = test system: NCI/ADR-RES
[35] = test system: OVCAR-3
[36] = test system: OVCAR-4
[37] = test system: OVCAR-5
[38] = test system: OVCAR-8
[39] = test system: PC-3
[40] = test system: RPMI-8226
[41] = test system: RXF 393
[42] = test system: SF-268
[43] = test system: SF-295
[44] = test system: SF-539
[45] = test system: SK-MEL-28
[46] = test system: SK-MEL-2
[47] = test system: SK-MEL-5
[48] = test system: SK-OV-3
[49] = test system: SN12C
[50] = test system: SNB-19
[51] = test system: SNB-75
[52] = test system: SR
[53] = test system: SW-620
[54] = test system: T47D
[55] = test system: TK-10
[56] = test system: U-251
[57] = test system: UACC-257
[58] = test system: UACC-62
[59] = test system: UO-31

For CC(=O)N1C(=O)/C(=C\C(=O)c2ccc(Cl)cc2)c2ccccc21, the GI50 [1] was 4.27 µM (inactive), the GI50 [2] was 19.2 µM (inactive) and the GI50 [3] was 13.5 µM (inactive). For the same compound, the GI50 [4] was 9.31 µM (inactive), the GI50 [5] was 4.19 µM (inactive) and the GI50 [6] was 13.3 µM (inactive). For the same compound, the GI50 [7] was 2.61 µM (inactive), the GI50 [8] was 9.44 µM (inactive) and the GI50 [9] was 17.1 µM (inactive). For the same compound, the GI50 [10] was 17.6 µM (inactive), the GI50 [11] was 15.9 µM (inactive) and the GI50 [12] was 9.29 µM (inactive). For the same compound, the GI50 [13] was 6.73 µM, the GI50 [14] was 2.28 µM (inactive) and the GI50 [15] was 20.1 µM (inactive). For the same compound, the GI50 [16] was 18.3 µM (inactive), the GI50 [17] was 4.32 µM (inactive) and the GI50 [18] was 19.5 µM (inactive). The GI50 [19] was 16.7 µM (inactive), the GI50 [20] was 12 µM (inactive) and the GI50 [21] was 16.9 µM (inactive). For the same compound, the GI50 [22] was 2.3 µM (inactive), the GI50 [23] was 16.5 µM (inactive) and the GI50 [24] was 21 µM (inactive). The GI50 [25] was 13.9 µM (inactive), the GI50 [26] was 14.1 µM (inactive) and the GI50 [27] was 14.4 µM (inactive). The GI50 [28] was 3.43 µM (inactive), the GI50 [29] was 16.3 µM (inactive) and the GI50 [30] was 19.9 µM (inactive). The GI50 [31] was 15.6 µM (inactive), the GI50 [32] was 15 µM (inactive) and the GI50 [33] was 10.9 µM (inactive). The GI50 [34] was 20.6 µM (inactive), the GI50 [35] was 10.1 µM (inactive) and the GI50 [36] was 16.7 µM (inactive). For the same compound, the GI50 [37] was 20 µM (inactive), the GI50 [38] was 14.1 µM (inactive) and the GI50 [39] was 11.4 µM (inactive). For the same compound, the GI50 [40] was 24.4 µM (inactive), the GI50 [41] was 15.3 µM (inactive) and the GI50 [42] was 18 µM (inactive). The GI50 [43] was 21.1 µM (inactive), the GI50 [44] was 12.2 µM (inactive) and the GI50 [45] was 14 µM (inactive). For the same compound, the GI50 [46] was 18.5 µM (inactive), the GI50 [47] was 19.2 µM (inactive) and the GI50 [48] was 22.8 µM (inactive). For the same compound, the GI50 [49] was 15.3 µM (inactive), the GI50 [50] was 24.8 µM (inactive) and the GI50 [51] was 17.7 µM (inactive). The GI50 [52] was 2.48 µM (inactive), the GI50 [53] was 4.24 µM (inactive) and the GI50 [54] was 16.5 µM (inactive). For the same compound, the GI50 [55] was 15.6 µM (inactive), the GI50 [56] was 15.5 µM (inactive) and the GI50 [57] was 14.9 µM (inactive). For the same compound, the GI50 [58] was 13.4 µM (inactive) and the GI50 [59] was 15.4 µM (inactive).
